The subject of series [1] is Achromobacter sp. strain LBAA. Put plainly: Glyphosate degradation pathway in resting cells. The procedure:
The glyphosate degradation pathway was characterized in resting cells of glyphosate-grown Achromobacter sp. strain LBAA according to the following procedure. Cells from a 100 ml culture of LBAA, grown in DF3S medium containing glucose, gluconate and citrate as carbon sources and with thiamine and Yeast Extract (0.01%) to supply trace requirements and with glyphosate at 0.2 mM as a phosphorous source, were harvested at a cell density of 200 Klett units, washed twice with 20 ml of DF3S medium and the equivalent of 20 ml of cells were resuspended in […] of the same medium containing [^14C]glyphosate (2.5 ml of 52 mCi/mmol, Amersham; CFA.745). The cell mix was incubated at 30° C. with shaking and 20 ml samples were withdrawn at various intervals. The samples were centrifuged to separate the cells from the broth supernatant. Both the supernatant and cell pellets were analyzed by HPLC.
Samples prepared in this way were analyzed by strong anion exchange (SAX) HPLC with radioisotope label detection to determine their levels of [^14C]-AMPA and N-acetyl-[^14C]-AMPA. Samples were injected using a Waters WISP autoinjector. Chromatographic profiles and quantitative data were collected using MACS2, Monsanto's automated chromatography data collection system. A Spherisorb S5 SAX, 250 mm×10 mm column, or an Alltech 5 micron, 250 mm×10 mm SAX column was used for the analyses. Solvents used were designated as solution A and solution B. Solution A contained 0.005M KH2PO4 adjusted to pH 2.0 with H3PO4 in 4% methanol. Solution B contained 0.10 M KH2PO4 adjusted to pH 2.0 with H3PO4 in 4% methanol. Each sample run time consisted of a step gradient program with an eluent flow rate of 3 ml per minute and a scintillation fluid (tradename ATOMFLOW, No. NEN-995 obtained from Packard Instruments) flow rate of 9 ml per minute. The HPLC solvent profile for distinguishing [^14C]-AMPA from N-acetyl-[^14C]-AMPA in each sample analyzed was represented by 100% solvent A at times zero through 5 minutes, then solvent B at 100% at time 5 minutes through 15 minutes, then 100% solvent A through 20 minutes at which time the column is prepared to receive another sample.
Cell pellets were first resuspended in DF3S medium made acidic by addition of 0.65N HCl, boiled for 5 minutes, then centrifuged briefly to provide a solution phase for HPLC analysis. Supernatants were treated similarly prior to HPLC analysis.
The GOX mediated glyphosate degradation pathway was elucidated further in a subsequent experiment where the metabolism of [^14C]AMPA was compared to that of [^14C]glyphosate as indicated above in resting cells harvested at 165 Klett units and resuspended at the equivalent of 15 ml cells per 100 ml DF3S medium. The samples were analyzed by HPLC and consisted of whole cultures acidified and treated as described above.

For series [2], the system named is recombinant cotton line 3753 (EPSPS/GOX). Put plainly: [^14C]-glyphosate metabolism in cotton line 3753. Format: in vivo, cotton (Gossypium hirsutum L.). To be noted: EPSPS/GOX Plants. The procedure:
The metabolism of [^14C]-glyphosate in recombinant cotton lines 4268 (GOX/PhnO) and 3753 (EPSPS/GOX) was also studied. Plants in this study were treated as indicated above for cotton line 4416, by applying droplets of ROUNDUP ULTRA fortified with [^14C]-glyphosate to a single leaf on each plant at the three to four leaf stage. Treated leaves were harvested and rinsed with water, then ground and extracted, and extracts were analyzed by HPLC as described above for the presence of [^14C]-glyphosate, [^14C]-AMPA, and N-acetyl-[^14C]-AMPA. New growth, including the meristem and new leaves that emerged following application were also extracted and analyzed.

[3] abbreviates: whole cultures exposed two hours.

“And” between values parts separate entries of the source, which are not always exact repeats. Identical values can stand only once.

Take `NCP(=O)(O)O` [AMPA, N-aminomethyl phosphonic acid]: in series [1] (setting [3]), the “label as AMPA” value is listed as 59%, the “label in the 13.2 minute peak (N-acetyl-AMPA)” value is on record as 18% and the “label in the methylamine/N-acetyl-methylamine peak” value is on record as 15%.
As for N-phosphono-methyl-glycine [Glyphosate], in series [1] (two hours incubation), the “glyphosate found within the cell” value is given as “About 3%”; the “material co-eluting with the methylamine standard, of initial radioactivity in the cell contents” value was “about 1.5%”; the “material co-eluting with the methylamine standard, of initial radioactivity in the supernatant” value is listed as “about 5%”; the “radioactivity in the glyphosate peak remaining in the supernatant, of the initial levels” value was “about 33%”. In series [1] (setting [3]), the “label as AMPA” value is 12.5%, the label as glyphosate came to 30%, the “label in the 13.2 minute peak (N-acetyl-AMPA)” value amounted to 30% and the “label in the methylamine/N-acetyl-methylamine peak” value came to 25%. In addition, in series [2], the “% [^14C] metabolite in New Growth Extract: N-Acetyl-AMPA” value came out at 1.9%. Moreover, in series [2] (listed as [^14C]-Glyphosate), the “% [^14C] metabolite in Glyphosate Treated Leaf Extract: AMPA” value is on record as 6-27%; the “% [^14C] metabolite in Glyphosate Treated Leaf Extract: Glyphosate” value is 59.8% and 92.7% and 81.2% and 86.2%; the “% [^14C] metabolite in Glyphosate Treated Leaf Extract: N-Acetyl-AMPA” value was 0.8% and 1.0%; the “% [^14C] metabolite in New Growth Extract: AMPA” value is on record as 72-86%. Moreover, in series [2] (listed as [^14C]-Glyphosate), the “% [^14C] metabolite in New Growth Extract: Glyphosate” value was 93%.

The values above are taken from US7554012B2, “Plants and plant cells exhibiting resistance to AMPA, and methods for making the same” (priority 1998, dated 2009).
